Measurements taken from patent publication US20060069132A1, “Azolecarboxamide herbicides” (priority 2004, published 2006).

How the values were obtained:
[1] = system: rice; experiment: Test B pre-/postemergence herbicide test; assay type: in vivo, Oryza sativa
Summary of the method: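 Formulation: non-phytotoxic solvent mix with surfactant. Timing: preemergence on seed and postemergence on 2–18 cm plants, applied concurrently. Readout after 13–15 d greenhouse: visual 0–100 control rating against controls.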

[2] = system: large crabgrass; experiment: Test C pre-/postemergence herbicide test; assay type: in vivo, Digitaria sanguinalis
Source text: (§1) Seeds of plant species selected from bermudagrass (Cynodon dactylon (L.) Pers.), Surinam grass (Urochloa decumbens (Staph) R. D. Webster, previously named Brachiaria decumbens Stapf), cocklebur (Xanthium strumarium L.), corn (Zea mays L.), large crabgrass (Digitaria sanguinalis (L.) Scop.), woolly cupgrass (Eriochloa villosa (Thunb.) Kunth), giant foxtail (Setaria faberi Herrm.), goosegrass (Eleusine indica (L.) Gaertn.), johnsongrass (Sorghum halepense (L.) Pers.), kochia (Kochia scoparia (L.) Schrad.), lambsquarters (Chenopodium album L.), morningglory (Ipomoea coccinea L.), eastern black nightshade (Solanum ptycanthum Dunal), yellow nutsedge (Cyperus esculentus L.), pigweed (Amaranthus retroflexus L.), common ragweed (Ambrosia elatior L.), soybean (Glycine max (L.) Merr.), common (oilseed) sunflower (Helianthus annuus L.) and velvetleaf (Abutilon theophrasti Medik.) were planted and treated preemergence with test chemicals formulated in a non-phytotoxic solvent mixture which included a surfactant.
(§2) At the same time, plants selected from these crop and weed species and also winter barley (Hordeum vulgare L.), blackgrass (Alopecurus myosuroides Huds.), canarygrass (Phalaris minor Retz.), chickweed (Stellaria media (L.) Vill.), downy bromegrass (Bromus tectorum L.), green foxtail (Setaria viridis (L.) Beauv.), Italian ryegrass (Lolium multiflorum Lam.), wheat (Triticum aestivum L.), wild oat (Avenafatua L.) and windgrass (Apera spica-venti (L.) Beauv.) were treated with postemergence applications of some of the test chemicals formulated in the same manner. Plants ranged in height from 2 to 18 cm (1- to 4-leaf stage) for postemergence treatments. Plant species in the flooded paddy test consisted of rice (Oryza sativa), smallflower umbrella sedge (Cyperus difformis L.), ducksalad (Heteranthera limosa (Sw.) Willd.) and barnyardgrass (Echinochloa crus-galli (L.) Beauv.) grown to the 2-leaf stage for testing. Treated plants and controls were maintained in a greenhouse for 12 to 14 days, after which time all species were compared to controls and visually evaluated. Plant response ratings, summarized in Table C, are based on a scale of 0 to 100 where 0 is no effect and 100 is complete control. A dash (-) response means no test result.

[3] = system: goosegrass; experiment: Test C pre-/postemergence herbicide test; assay type: in vivo, Eleusine indica
Source text: as §1, §2

[4] = system: pigweed; experiment: Test C pre-/postemergence herbicide test; assay type: in vivo, Amaranthus retroflexus
Source text: as §1, §2

[5] = system: velvetleaf; experiment: Test C pre-/postemergence herbicide test; assay type: in vivo, Abutilon theophrasti
Source text: as §1, §2

[6] = system: large crabgrass; experiment: Test A pre-/postemergence herbicide test; assay type: in vivo, Digitaria sanguinalis
Summary of the method: (§3)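 Plants are held in greenhouse about ten days after treatment, then compared with untreated controls and scored 0 (no effect) to 100 (complete control). Preemergence dosing is a directed soil spray on sown sandy loam; postemergence dosing is spray to runoff at 2–10 cm height.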

[7] = system: redroot pigweed; experiment: Test A pre-/postemergence herbicide test; assay type: in vivo, Amaranthus retroflexus
Summary of the method: as §3

[8] = 500 g ai/ha, visual rating 0-100, 0 no effect, 100 complete control, preemergence
[9] = preemergence, 125 g ai/ha, 0 to 100 scale, 0 is no effect, 100 is complete control
[10] = 62 g ai/ha, preemergence, scale 0 to 100
[11] = 250 g ai/ha, scale 0-100, preemergence
[12] = 500 g ai/ha, scale 0 to 100 (0 no effect, 100 complete control), visual, 12 to 14 days, preemergence
[13] = Postemergence, 500 g ai/ha, 0 to 100 scale, 0 no effect, 100 complete control
[14] = Postemergence, 2000 g ai/ha, 0 to 100 scale, 0 no effect, 100 complete control
[15] = Preemergence, 500 g ai/ha, visual rating, 0 to 100 scale (0 no effect, 100 complete control)
[16] = Preemergence, 2000 g ai/ha, visual rating, 0 to 100 scale (0 no effect, 100 complete control)
[17] = preemergence, 500 g ai/ha, visual injury, 0 to 100 scale (0 no effect, 100 complete control)
[18] = Postemergence, 125 g ai/ha, 0 to 100 scale, 0 no effect, 100 complete control
[19] = preemergence, 125 g ai/ha, visual injury, 0 to 100 scale (0 no effect, 100 complete control)
[20] = 125 g ai/ha, 0 = no effect, 100 = complete control, preemergence
[21] = 500 g ai/ha, visual rating, 0 = no effect, 100 = complete control, preemergence
[22] = Preemergence, 2000 g ai/ha, 0 to 100 scale, 0 no effect, 100 complete control
[23] = Postemergence, 250 g ai/ha, scale 0 to 100, 0 no effect, 100 complete control
[24] = Postemergence, 500 g ai/ha, scale 0 to 100, 0 no effect, 100 complete control
[25] = postemergence, 125 g ai/ha, scale 0 to 100
[26] = postemergence, 62 g ai/ha, scale 0 to 100

| Structure (SMILES) | Crabgrass, Large plant response rating [6, 13] | Plant response rating, Crabgrass, Large [6, 14] | Crabgrass, Large plant response rating [6, 15] | Crabgrass, Large plant response rating [6, 16] | Pigweed plant response rating [7, 13] | Plant response rating, Pigweed [7, 14] | Pigweed plant response rating [7, 16] | Pigweed plant response rating [7, 17] | Crabgrass, Large plant response rating [6, 17] | also measured |
| --- | --- | --- | --- | --- | --- | --- | --- | --- | --- | --- |
| CCn1nc(C(C)(C)C)cc1C(=O)Nc1cc(C(=O)NCC2CC2)ccn1 [Compound 155] | – | – | – | – | – | – | – | – | – | Plant response rating, Rice [1, 8]: 50; Plant response rating, Rice [1, 9]: 20 |
| CCc1nn(C(C)C)nc1C(=O)Nc1cccc(C(=O)N2CCCCC2)c1 [Compound 385] | – | – | – | – | – | – | – | – | – | Plant response rating, Crabgrass, Large [2, 10]: 90; Plant response rating (0 = no effect, 100 = complete control), Crabgrass, Large ([2]; 125 g ai/ha, preemergence): 95; Plant response rating, Crabgrass, Large [2, 11]: 100; Plant response rating, Crabgrass, Large [2, 12]: 100; Plant response rating, Goosegrass [3, 10]: 70; Plant response rating (0 = no effect, 100 = complete control), Goosegrass ([3]; 125 g ai/ha, preemergence): 80; Plant response rating, Goosegrass [3, 11]: 95; Plant response rating, Goosegrass [3, 12]: 100; Plant response rating, Pigweed [4, 10]: 80; Plant response rating (0 = no effect, 100 = complete control), Pigweed ([4]; 125 g ai/ha, preemergence): 100; Plant response rating, Pigweed [4, 11]: 100; Plant response rating, Pigweed [4, 12]: 100; Plant response rating, Velvetleaf [5, 10]: 50; Plant response rating (0 = no effect, 100 = complete control), Velvetleaf ([5]; 125 g ai/ha, preemergence): 85; Plant response rating, Velvetleaf [5, 11]: 100; Plant response rating, Velvetleaf [5, 12]: 100 |
| CCn1nc(C(C)(C)C)cc1C(=O)Nc1cccc(OCCCF)c1 [Compound 138] | 20 | 30 | 70 | 90 | 60 | 100 | 95 | 80 | – | Plant response rating, Rice [1, 8]: 40 |
| CCn1nc(C(C)(C)C)cc1C(=O)Nc1cccc(C(C)=O)c1 [Compound 122] | 35 | 65 | 70 | 95 | 60 | 100 | 90 | 85 | – | Plant response rating, Rice [1, 9]: 20 |
| CCN(C(C)=O)C(=O)c1ccc(F)c(NC(=O)c2cc(C(C)(C)C)nn2CC)c1 [Compound 413] | 10 | 15 | – | 70 | 60 | 85 | 60 | 45 | 40 | – |
| CCn1nc(C(C)(C)C)cc1C(=O)Nc1cccc(C(=O)NC(C)C)c1 [Compound 51] | – | – | 80 | – | – | – | – | – | – | Crabgrass, Large plant response rating [6, 18]: 30; Plant response rating, Crabgrass, Large [6, 13]: 30; Crabgrass, Large plant response rating [6, 19]: 80; Pigweed plant response rating [7, 18]: 50; Plant response rating, Pigweed [7, 13]: 85; Pigweed plant response rating [7, 15]: 100; Pigweed plant response rating [7, 19]: 100; Rice plant response rating ([1]; Preemergence, 500 g ai/ha, scale 0 to 100): 50; Plant response rating, Rice [1, 9]: 0 |
| CCc1nc(C(C)(C)C)sc1C(=O)Nc1cccc(C(=O)NC(C)(C)C)n1 [Compound 216] | 20 | 20 | – | 55 | 30 | 55 | 70 | 0 | 15 | Rice plant response rating (0 to 100 scale) [1, 20]: 0; Plant response rating, Rice [1, 21]: 70 |
| CCn1nc(C(C)(C)C)cc1C(=O)Nc1cccc(C(=O)NCCF)c1 [Compound 45] | – | 90 | 55 | – | – | 100 | – | – | – | Plant response rating, Crabgrass, Large [6, 13]: 80; Crabgrass, Large plant response rating [6, 22]: 75; Plant response rating, Pigweed [7, 13]: 100; Pigweed plant response rating [7, 15]: 95; Pigweed plant response rating [7, 22]: 100 |
| CCc1nc(C(C)(C)C)sc1C(=O)Nc1cccc(C(=O)NCCF)c1 [Compound 209] | 20 | 40 | – | 95 | 40 | 50 | 100 | 75 | 75 | Rice plant response rating (0 to 100 scale) [1, 20]: 30; Plant response rating, Rice [1, 8]: 70 |
| CCNC(=O)c1ccc(F)c(NC(=O)c2cc(C(C)(C)C)nn2CC)n1 [Compound 278] | 10 | 5 | – | 60 | 60 | 70 | 95 | 85 | 25 | Rice plant response rating (0 to 100 scale) [1, 20]: 30; Plant response rating, Rice [1, 21]: 80 |
| CCN(CC)C(=O)c1cncc(NC(=O)c2cc(C(C)(C)C)nn2CC)c1 [Compound 261, 5-[[[3-(1,1-dimethylethyl)-1-ethyl-1H-pyrazol-5-yl]carbonyl]amino]-N,N-diethyl-3-pyridinecarboxamide] | – | – | – | – | – | – | – | – | – | plant injury at 125 g/ha ([1]; Oryza sativa, pre-emergence, 336 h, 125 g ai/ha, 0 = no effect, 100 = complete control, read-out: Rice plant response rating (0 to 100 scale)): 0%; plant injury at 500 g/ha ([1]; Oryza sativa, pre-emergence, 336 h, 500 g ai/ha, visual rating, 0 = no effect, 100 = complete control, read-out: Plant response rating, Rice): 60% |
| C#CCNC(=O)c1cccc(NC(=O)c2sc(C(C)(C)C)nc2CC)c1 [Compound 319] | 10 | 50 | – | 100 | 40 | 40 | 100 | 100 | 85 | Plant response rating (0 to 100 scale), Rice ([1]; 125 g ai/ha, 0 is no effect, 100 is complete control, preemergence): 30; Plant response rating, Rice [1, 21]: 70 |
| CCn1nc(C(C)(C)C)cc1C(=O)Nc1cc(OC(F)(F)F)ccc1F [Compound 338] | 20 | 45 | – | 100 | 70 | 95 | 90 | 55 | 65 | Plant response rating, Crabgrass, Large [2, 23]: 10; Plant response rating, Crabgrass, Large [2, 24]: 15; Plant response rating, Crabgrass, Large [2, 25]: 5; Plant response rating, Crabgrass, Large [2, 26]: 0; Plant response rating, Goosegrass [3, 23]: 10; Plant response rating, Goosegrass [3, 24]: 10; Plant response rating, Goosegrass [3, 25]: 5; Plant response rating, Goosegrass [3, 26]: 0; Plant response rating, Pigweed [4, 23]: 80; Plant response rating, Pigweed [4, 24]: 80; Plant response rating, Pigweed [4, 25]: 5; Plant response rating, Pigweed [4, 26]: 0; Plant response rating, Velvetleaf [5, 23]: 40; Plant response rating, Velvetleaf [5, 24]: 80; Plant response rating, Velvetleaf [5, 25]: 0; Plant response rating, Velvetleaf [5, 26]: 0 |
